Data on 1 compound can be found in patent US11098032B2, “Pyran dervatives as CYP11A1 (cytochrome P450 monooxygenase 11A1) inhibitors” (ORION CORPORATION, priority 2016, dated 2021).

The assay deals with T1, CYP11A1 (Homo sapiens, UniProt P05108).
T1 construct: human H295R adrenocortical carcinoma cell line was used as source of enzyme; endogenous in cells; host or cells: H295R human adrenocortical carcinoma cells
T1 sequence (P05108 40-521): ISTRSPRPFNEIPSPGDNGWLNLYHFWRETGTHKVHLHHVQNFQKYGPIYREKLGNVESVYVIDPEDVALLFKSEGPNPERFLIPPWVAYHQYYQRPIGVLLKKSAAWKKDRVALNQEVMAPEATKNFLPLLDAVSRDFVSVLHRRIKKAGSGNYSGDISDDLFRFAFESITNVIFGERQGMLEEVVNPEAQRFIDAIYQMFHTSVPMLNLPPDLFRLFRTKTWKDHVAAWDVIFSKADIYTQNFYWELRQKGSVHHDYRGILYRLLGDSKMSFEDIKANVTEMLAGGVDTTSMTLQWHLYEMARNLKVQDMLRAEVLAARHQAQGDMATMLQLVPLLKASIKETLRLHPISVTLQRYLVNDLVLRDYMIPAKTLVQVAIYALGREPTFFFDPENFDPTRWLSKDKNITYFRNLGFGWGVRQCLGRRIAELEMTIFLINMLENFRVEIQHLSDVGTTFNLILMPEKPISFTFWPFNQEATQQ
Description: CYP11A1 inhibition: modified isocaproic acid release assay (IARA) in H295R cells. It counts as cell-based. As to conditions: human H295R adrenocortical carcinoma cells treated three days, 3 nM [24,25-3H]-labelled cholesterol, 1% DMSO, 10 concentrations in duplicates; read-out: IC50 of the test compounds on CYP11A1 inhibition. Put shortly: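 H295R adrenocortical cells treated three days with test compounds at 10 concentrations in duplicate plus 3 nM [24,25-3H]-cholesterol, 1% DMSO final. Released radiolabelled isocaproic acid measured by scintillation counting after dextran-coated charcoal extraction; IC50 determined.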

For orientation: IC50 means the concentration needed to halve the response being measured. In the case of `Cc1ccc2c(c1)CN(Cc1cc(=O)c(OCC3CCN(S(C)(=O)=O)CC3)co1)C2` [Compound 211, 2-((5-Methylisoindolin-2-yl)methyl)-5-((1-(methylsulfonyl)piperidin-4-yl)-methoxy)-4H-pyran-4-one], the IC50 is < 150 nM.
